Laboratory results as given in patent publication US20250057848A1, “GAL475 COMPOSITIONS AND METHODS OF USE THEREOF” (NEURIM PHARMACEUTICALS (1991) LTD., priority 2023, published 2025).

What was measured:
5-HT2B(h) = 5-HT2B(h) (Homo sapiens (Human), UniProt P41595); test: Receptor binding assay, % inhibition of radioligand binding, 5-HT2B(h); details: 30 micromolar GAL475; agonist radioligand; read-out: % inhibition of the binding of radioactively labelled ligand
Description: (§1) GAL475 (30 micromolar) was tested in multiple receptor binding assays. The binding was calculated as a % inhibition of the binding of a radioactively labelled ligand specific for each target.
(§2) However, the potency of GAL 475 at these receptors was lower than 1 micromolar and therefore not considered to be pharmacologically interesting. […] GAL475 was subsequently tested for PAM activity at the human NTS1 (FAST-0330I) and NTS2 (FAST-0331I) receptors, at 100-50,000 nanomolar concentrations. Agonist activity of GAL475 is expressed as a percentage of the activity of the reference agonist (Neurotensin) at its EC100 (maximal response) concentration. Antagonist activity of GAL475 is expressed as a percentage of the inhibition of reference agonist activity at its EC80 […] concentration. The assays were conducted with recombinant cell lines.

5-HT5a(h) = 5-HT5a(h) (Homo sapiens (Human), UniProt P47898); test: Receptor binding assay, % inhibition of radioligand binding, 5-HT5a(h); details: 30 micromolar GAL475; agonist radioligand; read-out: % inhibition of the binding of radioactively labelled ligand
Description: as §1, §2

5-HT7 (h) = 5-HT7 (h) (Homo sapiens (Human), UniProt P34969); test: Receptor binding assay, % inhibition of radioligand binding, 5-HT7 (h); details: 30 micromolar GAL475; agonist radioligand; read-out: % inhibition of the binding of radioactively labelled ligand
Description: as §1, §2

[1] = test system: al adrenoreceptor (non-selective); test: Receptor binding assay, % inhibition of radioligand binding, al adrenoreceptor (non-selective); details: 30 micromolar GAL475; antagonist radioligand
Description: as §1, §2

Na+channel (site 2) = test: Receptor binding assay, % inhibition of radioligand binding, Na+channel (site 2); details: 30 micromolar GAL475; antagonist radioligand
Description: as §1, §2

human NTS1 = human NTS1 (Homo sapiens (Human), UniProt P30989); test: Positive allosteric modulator (PAM) activity at human NTS1 (FAST-0330I), recombinant CHO-K1-mt aequorin cells; assay type: cell-based; details: 100-50,000 nM
From the text: as §2
(§3) GAL475 (100-50,000 nM) was tested for positive allosteric modulator (PAM) activity at the human NTS1 (FAST-0330I) and NTS2 (FAST-0331I) receptors (Tables 2 and 3).

human NTS2 = human NTS2 (Homo sapiens (Human), UniProt O95665); test: Positive allosteric modulator (PAM) activity at human NTS2 (FAST-0331I), recombinant CHO-K1-mt aequorin cells; assay type: cell-based; details: 100-50,000 nM
From the text: as §2, §3

[2] = 28 days repeated oral dose with 14-days recovery in rats (body weight, food consumption, tolerability); assay type: in vivo, rat; details: for overall body weight gain Day −1 to Day 28 compared to that of the controls: 80 mg/kg/day oral; for group mean body weight compared to the controls: >40 mg/kg/day oral, end of dosing phase (28 days)
Description: One hundred and forty-two (71/sex) rats were randomly assigned to 4 groups and given vehicle [2% (w/v) CMC-Na, 1% (v/v) Tween 80 in 0.1 M phosphate buffer at pH 7.4±0.2] or Gal-475*2HCl at 20, 40 or 80 mg/kg/day once daily for 28 days by the oral gavage route.

[3] = 28 day repeated oral dose with 14-day recovery in Beagle dogs (body weight gain, food consumption); assay type: in vivo, Beagle dog; details: for decrease in food consumption / decrease in body weight gain: 7.5, 15, or 30 mg/kg/day oral; for decrease in food consumption: dosing phase; for decrease in body weight gain: dosing phase up to 28 days
Description: Thirty-two (16/sex) dogs were randomly assigned to 4 groups and orally administered vehicle (2% (w/v) CMC-Na, 1% (v/v) Tween 80 in 0.1 M phosphate buffer at pH 7.4) or Gal-475*2HCl at 7.5, 15, or 30 mg/kg/day once daily for up to 28 days.

[4] = Acute gastric emptying (charcoal slurry) in rats; assay type: in vivo, Sprague-Dawley rat; details: 3 mg/kg IV
Description: Naive male Sprague-Dawley rats (239-297 g) were used to evaluate the effect on gastric emptying of a single dose of 3 mg/kg GAL-475 IV.
Rats were fasted 16-18 hours prior to the start of the experiment and then were given a bolus dose of either vehicle (1% tween-80 2% CMC) or GAL475 (3 mg/kg, IV) via the lateral tail vein. 5 minutes after dosing, rats were gavaged with a charcoal slurry (5 ml/kg, 10% charcoal in 2.5% Arabic gum from acacia tree) and then returned to their cages. 20 minutes after receiving the slurry, rats were euthanized using CO2. The stomachs were excised, weighed, emptied, washed and reweighed. Gastric content was calculated as the difference between full and empty weights. Increased gastric content was interpreted as a decrease in gastric emptying food retention).

[5] = Phase 1 single escalating oral dose study in healthy male volunteers (body weight, tolerability); assay type: in vivo, human
Description: The effects of an oral dose of GAL-475 (capsules of 450 mg) in 12 healthy male volunteers was tested in a Phase 1, randomized, placebo-controlled, double-blind, first in man single escalating dose study.
The study drug (GAL475) at 50, 150, 450 mg dosages, or placebo were administered on the morning of Day 1. Subjects fasted for 8 hours prior to the intake of study drug or placebo and for at least 4 hours following dosing.
The subject's body weight was measured on day −1 and at the follow up visit (day 7) using a validated balance. Body weight was recorded with 1 decimal.

[6] = oral gavage once daily 28 days, 20, 40, or 80 mg/kg/day
[7] = 450 mg single oral dose, day −1 to day 7

Chain of human NTS1 (P30989 whole entry): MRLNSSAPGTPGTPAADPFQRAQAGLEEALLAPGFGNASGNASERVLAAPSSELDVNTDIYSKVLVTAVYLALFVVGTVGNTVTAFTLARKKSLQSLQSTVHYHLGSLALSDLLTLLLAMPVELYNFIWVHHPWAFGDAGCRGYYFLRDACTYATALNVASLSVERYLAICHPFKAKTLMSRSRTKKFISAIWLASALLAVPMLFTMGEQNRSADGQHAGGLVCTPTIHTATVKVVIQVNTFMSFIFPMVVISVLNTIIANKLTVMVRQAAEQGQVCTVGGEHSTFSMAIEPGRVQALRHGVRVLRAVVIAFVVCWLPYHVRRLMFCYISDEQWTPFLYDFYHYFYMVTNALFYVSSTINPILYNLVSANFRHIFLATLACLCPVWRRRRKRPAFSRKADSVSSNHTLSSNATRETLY
Chain of 5-HT5a(h) (P47898 whole entry, the tested form may be a part): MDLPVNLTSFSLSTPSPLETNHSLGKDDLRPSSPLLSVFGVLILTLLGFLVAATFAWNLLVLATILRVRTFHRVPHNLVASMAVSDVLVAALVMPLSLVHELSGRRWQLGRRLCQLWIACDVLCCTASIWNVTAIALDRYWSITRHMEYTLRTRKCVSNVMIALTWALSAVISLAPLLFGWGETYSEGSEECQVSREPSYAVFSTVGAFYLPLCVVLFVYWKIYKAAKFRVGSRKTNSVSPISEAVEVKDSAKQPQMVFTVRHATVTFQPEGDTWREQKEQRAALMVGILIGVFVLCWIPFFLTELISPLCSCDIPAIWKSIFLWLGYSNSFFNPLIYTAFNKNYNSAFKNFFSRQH
Chain of human NTS2 (O95665 whole entry): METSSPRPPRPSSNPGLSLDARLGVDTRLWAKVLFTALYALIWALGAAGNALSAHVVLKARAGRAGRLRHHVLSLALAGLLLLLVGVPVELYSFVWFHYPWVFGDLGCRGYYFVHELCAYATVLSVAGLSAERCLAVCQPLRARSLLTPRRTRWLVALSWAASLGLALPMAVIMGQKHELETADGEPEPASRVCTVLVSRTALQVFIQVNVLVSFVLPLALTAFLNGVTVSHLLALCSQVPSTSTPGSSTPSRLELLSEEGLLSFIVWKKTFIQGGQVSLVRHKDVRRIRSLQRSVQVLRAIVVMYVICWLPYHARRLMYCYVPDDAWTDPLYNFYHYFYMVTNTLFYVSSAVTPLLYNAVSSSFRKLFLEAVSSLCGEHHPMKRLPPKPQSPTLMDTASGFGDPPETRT
Chain of 5-HT2B(h) (P41595 whole entry, the tested form may be a part): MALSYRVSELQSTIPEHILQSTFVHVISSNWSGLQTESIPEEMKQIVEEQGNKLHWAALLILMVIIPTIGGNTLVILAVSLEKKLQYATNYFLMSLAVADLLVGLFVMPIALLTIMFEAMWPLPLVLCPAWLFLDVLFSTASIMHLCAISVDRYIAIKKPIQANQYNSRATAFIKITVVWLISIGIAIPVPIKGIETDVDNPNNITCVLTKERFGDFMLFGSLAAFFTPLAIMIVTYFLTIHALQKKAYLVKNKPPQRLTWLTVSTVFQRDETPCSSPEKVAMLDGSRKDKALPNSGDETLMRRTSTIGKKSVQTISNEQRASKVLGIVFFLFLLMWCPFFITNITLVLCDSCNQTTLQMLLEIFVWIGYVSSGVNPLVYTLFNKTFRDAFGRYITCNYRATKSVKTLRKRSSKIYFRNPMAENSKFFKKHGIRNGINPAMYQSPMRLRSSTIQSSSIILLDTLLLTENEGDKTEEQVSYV
Chain of 5-HT7 (h) (P34969 whole entry, the tested form may be a part): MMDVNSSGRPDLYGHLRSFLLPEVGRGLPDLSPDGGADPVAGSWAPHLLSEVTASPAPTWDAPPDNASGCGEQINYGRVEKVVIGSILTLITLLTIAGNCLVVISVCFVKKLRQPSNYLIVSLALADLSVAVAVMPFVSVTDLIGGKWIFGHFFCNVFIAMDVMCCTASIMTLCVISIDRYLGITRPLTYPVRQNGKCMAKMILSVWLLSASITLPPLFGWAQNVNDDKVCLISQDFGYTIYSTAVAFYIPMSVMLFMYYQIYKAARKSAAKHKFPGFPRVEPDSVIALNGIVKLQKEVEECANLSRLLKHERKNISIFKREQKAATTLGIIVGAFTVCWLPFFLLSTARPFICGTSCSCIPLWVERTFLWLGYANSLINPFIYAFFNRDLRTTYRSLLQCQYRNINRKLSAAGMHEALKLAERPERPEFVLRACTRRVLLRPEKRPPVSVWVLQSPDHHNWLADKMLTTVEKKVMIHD

With CCCNc1nc(NC)nc2c(NCC(C)(C)O)nc(NC)nc12 [GAL475, 1-(2,6-Bis-methylamino-8-propylamino-pyrimido[5,4-d]pyrimidin-4-ylamino)-2-methyl-propan-2-ol] the inhibition at 30 µM (5-HT2B(h)) was 75%, the inhibition at 30 µM (5-HT5a(h)) was 50.6% and the inhibition at 30 µM (5-HT7 (h)) was 79%. For the same molecule, the “% inhibition of the binding of radioactively labelled ligand” value [1] was 67.1%, the “% inhibition of the binding of radioactively labelled ligand” value (Na+channel (site 2)) was 75.1% and the “Hill Coefficient” value (human NTS1) was 11.62. The “% Activation Average at maximal concentration” value (human NTS1; CHO-K1-mt aequorin) was 26.48%, the EC50 (human NTS1; CHO-K1-mt aequorin) was 355 nM and the “% Activation Average at maximal concentration” value (human NTS2) was 0.21%. For the same molecule, the “weight loss compared to vehicle” value ([2]; 40 mg/Kg body weight per day, 28 days) was “meaningful weight loss”, the “body weight gain during recovery phase compared to controls” value ([2]; 80 mg/kg/day, 2 weeks recovery phase) was “comparable or greater body weight gain” and the “group mean food consumption compared with control group” value ([2]; both sexes, >40 mg/kg/day, dosing phase) was “significant reduced”. The “food intake at the end of recovery phase” value ([2]; end of recovery phase) was “reversed”, the “overall body weight gain Day −1 to Day 28 compared to that of the controls” value ([2]; females) was 79% and the “group mean body weight compared to the controls” value ([2]; females) was −4.70%. The “overall body weight gain Day −1 to Day 28 compared to that of the controls” value ([2]; males) was 71%, the “group mean body weight compared to the controls” value ([2]; males) was −7.35% and the “test article-related adverse effects in clinical signs, food consumption, clinical pathology, or pathology” value [2, 6] was “no test article-related adverse effects”. For the same molecule, the tolerability [2, 6] was “well tolerated”, the “decrease in body weight compared to vehicle” value ([3]; 28 days) was 25% and the “food consumption compared to vehicle” value ([3]; 28 days) was “dramatic decrease”. For the same molecule, the “gastric emptying compared to vehicle” value ([4]; p<0.05) was “significantly decreased”, the “gastric content retention higher compared to vehicle controls” value ([4]; up to 25 minutes after administration) was “up to 105%” and the “subjects with mild headaches on the day of capsule intake” value (from here on “subjects with mild headaches on the day”) ([5]; 50 mg single oral dose) was 2 of the 6. The “subjects with mild headaches on the day” value ([5]; 150 mg single oral dose) was 0 of the 6, the “subjects with mild headaches on the day” value ([5]; 450 mg single oral dose) was 5 of the 6 and the “change in body weight, average” value [5, 7] was -0.6 kg. The “change in body weight, range” value [5, 7] was −0.1 to −1.6 kg and the tolerability ([5]; single oral dose 50, 150, 450 mg) was “well tolerated except for mild headaches”.
In the case of CCCNc1nc(NC)nc2c(NCC(C)(C)O)nc(NC)nc12.Cl.Cl [Gal-475*2HCl, 1-(2,6-Bis-methylamino-8-propylamino-pyrimido[5,4-d]pyrimidin-4-ylamino)-2-methyl-propan-2-ol bis hydrochloride], the “decrease in food consumption” value ([3]; females) is reported as at most 98%, the “decrease in body weight gain” value ([3]; females) is reported as at most 29.9% and the “decrease in food consumption” value ([3]; males) is reported as “up to 81%”. The “decrease in body weight gain” value ([3]; males) was “up to 22.7%” and the “body weight gain and food consumption during the recovery phase” value ([3]; recovery phase) was “comparable with the control”.
